“Also recorded” adds a separate entry of the source. Read-outs that look alike come from different tables or passages of the source. Marks after values point to notes of the source that are not given here. Each block holds one molecule with its values, some of them ahead of it.
Tests used:
[1] = target: T1, Human brain derived TDP-43 aggregates (Homo sapiens, UniProt Q13148); test: Micro-radiobinding competition assay on human FTD sarkosyl-insoluble brain extracts; assay type: binding; settings: for Human brain derived TDP-43 aggregates Mean % competition at 250 nM: 250 nM test compound; for Human brain derived TDP-43 aggregates Mean % competition at 2 μM: 2 μM test compound; for Ki: 0.24 nM to 2 μM test compound
T1 construct: A sample of brain tissue (frontal or temporal cortex) was homogenized; from tissue; host or cells: sarkosyl-insoluble fraction of human FTD brain (frontal or temporal cortex)
Protocol: Human brain extracts were prepared as described in Laferriere et al., 2019, Nature Neurosc. A sample of brain tissue (frontal or temporal cortex) was homogenized at 1:4 (w/v) ratio in the homogenization-solubilization (HS) buffer at 4° C. using tissue homogenizer (Precellys) with CKmix homogenization tubes. The following sequence was used for homogenization: 3 cycles of 30 seconds at 5000 rpm (with 15 seconds pause between each cycle). Homogenized samples were aliquoted and stored at −80° C. in 1.5 mL low protein binding tubes.
Brain homogenates were thawed on ice and resuspended in HS buffer to obtain a final concentration of 2% sarkosyl, 1 unit/μL Benzonase and 1 mM MgCl2. The samples were then incubated at 37° C. under constant shaking at 600 rpm on a thermomixer for 45 minutes (min). The supernatants were collected in a new tube (sarkosyl-soluble fraction, S1). The pellet was resuspended in 1000 μL of myelin floatation buffer and centrifuged at 20,000 g for 60 min at 4° C. The supernatant was carefully removed to remove all the floating lipids. This step was repeated if all the lipids could not be removed in a single step. The pellet was subsequently washed with Phosphate-Buffered Saline (PBS) and centrifuged for 30 min at 20,000 g at 4° C. The final pellet was resuspended in 200 μL PBS and stored at −80° C. (sarkosyl-insoluble fraction). The samples were analyzed by immunoblotting in denaturing conditions.
Human FTD sarkosyl-insoluble brain extracts were spotted onto microarray slides. The slides were incubated with [^3H]-Compound 52 or [^3H]-Compound 16 ligands at 75 nM or 40 nM, respectively, and the example compounds (non-radiolabelled) at 2 μM and 250 nM. In some cases, the non-radiolabelled example compounds were further assessed for a range of different concentrations, varying from 0.24 nM to 2 μM for determination of the inhibition constant (Ki). After incubation, slides were washed and scanned by a real-time autoradiography system (BeaQuant, ai4R). Quantification of the signal was performed by using the Beamage image analysis software (ai4R). Non-specific signal was determined with an excess of non-radiolabelled compound 52 or compound 16 (2 μM) and specific binding was calculated by subtracting the non-specific signal from the total signal. Competition was calculated as percent, where 0% was defined as the specific binding in the presence of vehicle and 100% as the values obtained in the presence of excess of the non-radiolabelled compound 52 or compound 16. Ki values were calculated in GraphPad Prism7 by applying a nonlinear regression curve fit using a one site, specific binding model. Measurements were performed with at least two technical replicates in the two-concentration competition experiment and with one technical replicate in the experiments including a range of concentrations. For compounds tested in more than one experiment, the mean of the replicates or Ki values in independent experiments is reported.

[2] = target: T2, recombinant flag-tagged TDP-43 aggregates (Homo sapiens, UniProt Q13148); test: Kd determination on recombinant TDP-43 aggregates with filter-binding assay
T2 construct: FLAG
Protocol: The TDP-43 aggregation protocol (Shimonaka et al., 2016) was implemented to generate TDP-43 aggregates. The protein preparation of high purity without any degradation was used for the aggregation procedure.
2.1 Kd Determination on Recombinant TDP-43 Aggregates with Filter-Binding Assay of [^3H]-Compound 1
Recombinant flag-tagged TDP-43 aggregates (1.3 μM) were incubated in the presence of [^3H]-Compound 1 with increasing concentrations of radioligand from 0 to 150 nM in a total reaction volume of 100 μL, for two hours at room temperature. 45 μL of sample (corresponding to each concentration) in duplicate was filtered under vacuum on a UniFilter-96 GF/C plate. The filters were washed 5 times with ice-cold buffer (50 mM Tris pH 7.4) and then dried overnight. 30 μL scintillation liquid was added in each well for 30 minutes before quantifying the signal on a Microbeta Trilux device (Perkin Elmer). The non-specific signal was determined with an excess of unlabeled Compound 1 (10 μM) and the specific binding was calculated by subtracting the non-specific signal from the total signal.

[3] = target: T3, pTDP-43 aggregates in FTLD-TDP brain sections (Homo sapiens, UniProt Q13148); test: Micro-autoradiography staining in brain sections from patients with FTD; assay type: binding; settings: 60 nM radioligand, frontal cortex brain sections from FTLD-TDP donors
T3 construct: from tissue; host or cells: frozen post-mortem human brain sections from FTLD-TDP donors
Protocol: All tissues were collected from donors for or from whom a written informed consent for a brain autopsy and the use of the material and clinical information for research purposes had been obtained by the respective brain banks. All samples were anonymized and coded. Frozen brain tissue blocks with confirmed TDP-43 pathology upon autopsy were processed using a cryotome to generate sections of 10 μm in thickness and mounted on glass slides. Sections were kept at −80° C. until use.
Brain sections were immunostained using a commercially available antibody, specific for phosphorylated serine at amino acid 409/410 (anti-pTDP-43 pS409/410, Cosmobio, TIP-PTD-P02). Sections were fixed for 15 minutes at 4° C. with 4% formaldehyde (Sigma, 252549) and washed three times for five minutes with 1×PBS (Dulbecco's phosphate buffered saline, Sigma D1408) at room temperature. Next, sections were saturated and permeabilized in blocking buffer (PBS, 10% normal goat serum (NGS), 0.25% Triton X-100) for one hour at room temperature and incubated overnight at 4° C. with primary antibody against pTDP-43 (diluted at 1/250 in PBS, 5% NGS, 0.25% Triton X-100). The following day, sections were washed three times for five minutes with 1×PBS before incubation with a secondary, AlexaFluor647-labeled goat-anti-rabbit antibody (Abcam, ab150079, diluted at 1/500 in PBS) for 45 minutes at room temperature. […]

[4] = radioligand [3H]-Compound 52 (75 nM)
[5] = radioligand [3H]-Compound 16 (40 nM)

T2 sequence (Q13148 whole entry): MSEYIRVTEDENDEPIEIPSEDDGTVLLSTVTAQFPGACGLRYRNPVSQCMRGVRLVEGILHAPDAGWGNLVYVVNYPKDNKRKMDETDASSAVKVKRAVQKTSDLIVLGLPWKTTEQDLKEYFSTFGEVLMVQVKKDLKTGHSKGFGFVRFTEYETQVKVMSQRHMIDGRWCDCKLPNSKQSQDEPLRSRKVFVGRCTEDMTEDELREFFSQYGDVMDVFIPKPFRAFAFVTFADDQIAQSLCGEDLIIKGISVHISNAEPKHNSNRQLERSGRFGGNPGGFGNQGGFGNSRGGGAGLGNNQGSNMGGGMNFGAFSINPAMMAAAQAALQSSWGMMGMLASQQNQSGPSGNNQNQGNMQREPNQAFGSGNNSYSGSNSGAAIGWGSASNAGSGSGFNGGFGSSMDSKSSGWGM
T1 sequence (Q13148 whole entry): as above
T3 sequence (Q13148 whole entry): as above

SMILES: Nc1cccc(N2CCc3nc(-c4cnc(N5CC[C@@H](F)C5)cn4)sc3C2=O)c1F [Example 38]
Human brain derived TDP-43 aggregates Mean % competition at 250 nM [1, 4]: 46.3ª %
Human brain derived TDP-43 aggregates Mean % competition at 2 μM [1, 4]: 74.0ª %
Ki [1, 4]: 114 nM

SMILES: N#Cc1c(N)cccc1N1CCc2nc(-c3cnc(N4CCC(F)CC4)cn3)sc2C1=O [Example 39]
Human brain derived TDP-43 aggregates Mean % competition at 250 nM [1, 5]: 64.5^c %
Human brain derived TDP-43 aggregates Mean % competition at 2 μM [1, 5]: 77.4^c %
Ki [1, 5]: 148 nM

SMILES: N#Cc1c(N)cccc1N1CCc2nc(-c3cnc(N4CC[C@@H](F)C4)cn3)sc2C1=O [Example 40]
Human brain derived TDP-43 aggregates Mean % competition at 250 nM [1, 5]: 54.6^c %
Human brain derived TDP-43 aggregates Mean % competition at 2 μM [1, 5]: 77.9^c %
Ki [1, 5]: 104 nM

SMILES: N#Cc1c(N)cccc1N1CCc2nc(-c3cnc(N4CC[C@H](F)C4)cn3)sc2C1=O [Example 41]
Human brain derived TDP-43 aggregates Mean % competition at 250 nM [1, 5]: 47.2^c %
Human brain derived TDP-43 aggregates Mean % competition at 2 μM [1, 5]: 67.7^c %

SMILES: Nc1cc(N2CCc3nc(-c4cnc(N5CCCC5)nc4)sc3C2=O)ccc1F [Example 42]
Human brain derived TDP-43 aggregates Mean % competition at 250 nM [1, 4]: 43.8ª %
Human brain derived TDP-43 aggregates Mean % competition at 2 μM [1, 4]: 79.6ª %

SMILES: Nc1ccc(N2CCc3nc(-c4cnc(N5CCCC5)nc4)sc3C2=O)cc1F [Example 43]
Human brain derived TDP-43 aggregates Mean % competition at 250 nM [1, 4]: 45.0ª %
Human brain derived TDP-43 aggregates Mean % competition at 2 μM [1, 4]: 69.4ª %

Now from value to molecule, other results behind:

Human brain derived TDP-43 aggregates Mean % competition at 250 nM [1, 4]: 47.0ª %
Human brain derived TDP-43 aggregates Mean % competition at 2 μM [1, 4]: 64.3ª %
SMILES: Cn1cc(N2CCc3nc(-c4cnc(N5CCC[C@H](F)C5)nc4)sc3C2=O)cn1 [Example 45]

Human brain derived TDP-43 aggregates Mean % competition at 250 nM [1, 4]: 62.5ª %
Human brain derived TDP-43 aggregates Mean % competition at 2 μM [1, 4]: 85.9ª %
Ki [1, 4]: 93 nM
SMILES: Nc1cc(N2CCc3nc(-c4cnc(N5CC[C@@H](F)C5)nc4)sc3C2=O)ccc1F [Example 46]

Human brain derived TDP-43 aggregates Mean % competition at 250 nM [1, 4]: 50.2ª %
Human brain derived TDP-43 aggregates Mean % competition at 2 μM [1, 4]: 81.7ª %
Ki [1, 4]: 152 nM
SMILES: Nc1cccc(N2CCc3nc(-c4cnc(N5CC[C@H](F)C5)nc4)sc3C2=O)c1F [Example 47]

Human brain derived TDP-43 aggregates Mean % competition at 250 nM [1, 4]: 46.9ª %
Human brain derived TDP-43 aggregates Mean % competition at 2 μM [1, 4]: 77.9ª %
Ki [1, 4]: 73.6 nM
SMILES: Nc1cccc(N2CCc3nc(-c4cnc(N5CCC[C@H](F)C5)nc4)sc3C2=O)c1F [Example 48]

Human brain derived TDP-43 aggregates Mean % competition at 250 nM [1, 5]: 63.1^c %
Human brain derived TDP-43 aggregates Mean % competition at 2 μM [1, 5]: 65.5^c %
Ki [1, 5]: 117 nM
SMILES: Nc1cc(N2CCc3nc(-c4cnc(N5CCC(F)CC5)nc4)sc3C2=O)ccc1F [Example 49]

Human brain derived TDP-43 aggregates Mean % competition at 250 nM [1, 5]: 52.8^c %
Human brain derived TDP-43 aggregates Mean % competition at 2 μM [1, 5]: 63.4^c %
SMILES: Nc1cccc(N2CCc3nc(-c4cnc(N5CCC[C@@H](F)C5)nc4)sc3C2=O)c1F [Example 50]

Kd ([2]; data from three independent experiments, read-out: average Kd): 18.4 ± 4 nM
Kd ([2]; filter-binding assay, tritiated radioligand 0 to 150 nM, one-site specific binding model (FIG. 1), read-out: Kd value on recombinant flag-tagged TDP-43 aggregates): 15 nM
specific binding to recombinant TDP-43 aggregates ([2]; filter-binding assay, non-specific signal subtracted): high specific binding
SMILES: Cn1cc(N2CCc3nc(-c4ccc(N5CC[C@@H](F)C5)nc4)sc3C2=O)cn1 [[^3H]-Compound 1, (R)-2-(6-(3-fluoropyrrolidin-1-yl)pyridin-3-yl)-5-(1-methyl-1H-pyrazol-4-yl)-6,7-dihydrothiazolo[5,4-c]pyridin-4(5H)-one]
micro-autoradiography signal (silver grains) co-localization with pTDP-43 antibody staining [3]: Accumulation of silver grains on pTDP-43 aggregates; also recorded: showed co-localization with pTDP-43 aggregates

— patent US20240336627A1, “NOVEL COMPOUNDS FOR THE DIAGNOSIS OF TDP-43 PROTEINOPATHIES” (AC IMMUNE SA, priority 2021, published 2024)
